Data as given in ChEMBL document CHEMBL5463729, “Data for DCP probe BAY 1753011” (2023).

Legend:
Settings in all cases: Compound concentration 10.0 uM
[1] = molecular target: Activin receptor type-1B (Homo sapiens) (UniProt P36896); assay: Inhibition of ALK4(h) at 10.0 µM in the Eurofins Kinase panel
[2] = molecular target: Bone morphogenetic protein receptor type-1B (Homo sapiens) (UniProt O00238); assay: Inhibition of ALK6(h) at 10.0 µM in the Eurofins Kinase panel
[3] = molecular target: Calcium/calmodulin-dependent protein kinase type II subunit gamma (Homo sapiens) (UniProt Q13555); assay: Inhibition of CaMKIIgamma(h) at 10.0 µM in the Eurofins Kinase panel
[4] = molecular target: Calcium/calmodulin-dependent protein kinase type IV (Homo sapiens) (UniProt Q16566); assay: Inhibition of CaMKIV(h) at 10.0 µM in the Eurofins Kinase panel
Sequence of Calcium/calmodulin-dependent protein kinase type IV (Homo sapiens) (Q16566 whole entry): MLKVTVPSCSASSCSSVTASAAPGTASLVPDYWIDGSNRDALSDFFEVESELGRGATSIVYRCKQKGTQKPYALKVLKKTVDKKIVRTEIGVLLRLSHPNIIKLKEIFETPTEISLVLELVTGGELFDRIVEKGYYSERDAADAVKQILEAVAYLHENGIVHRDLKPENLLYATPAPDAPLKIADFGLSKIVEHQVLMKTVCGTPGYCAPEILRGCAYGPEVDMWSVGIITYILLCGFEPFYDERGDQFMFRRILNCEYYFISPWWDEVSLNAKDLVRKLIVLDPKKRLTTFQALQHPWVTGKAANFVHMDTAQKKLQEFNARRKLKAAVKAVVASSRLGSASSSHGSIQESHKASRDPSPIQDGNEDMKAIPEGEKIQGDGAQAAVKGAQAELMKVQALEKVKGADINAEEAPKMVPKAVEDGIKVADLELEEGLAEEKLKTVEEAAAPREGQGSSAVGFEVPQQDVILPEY

[5] = molecular target: CDK17/Cyclin-Y (Homo sapiens) (UniProt Q00537+Q8ND76); assay: Inhibition of CDK17/cyclinY(h) at 10.0 µM in the Eurofins Kinase panel; type: protein-complex assay
Sequence of CDK17/Cyclin-Y (Homo sapiens) (Q00537 whole entry): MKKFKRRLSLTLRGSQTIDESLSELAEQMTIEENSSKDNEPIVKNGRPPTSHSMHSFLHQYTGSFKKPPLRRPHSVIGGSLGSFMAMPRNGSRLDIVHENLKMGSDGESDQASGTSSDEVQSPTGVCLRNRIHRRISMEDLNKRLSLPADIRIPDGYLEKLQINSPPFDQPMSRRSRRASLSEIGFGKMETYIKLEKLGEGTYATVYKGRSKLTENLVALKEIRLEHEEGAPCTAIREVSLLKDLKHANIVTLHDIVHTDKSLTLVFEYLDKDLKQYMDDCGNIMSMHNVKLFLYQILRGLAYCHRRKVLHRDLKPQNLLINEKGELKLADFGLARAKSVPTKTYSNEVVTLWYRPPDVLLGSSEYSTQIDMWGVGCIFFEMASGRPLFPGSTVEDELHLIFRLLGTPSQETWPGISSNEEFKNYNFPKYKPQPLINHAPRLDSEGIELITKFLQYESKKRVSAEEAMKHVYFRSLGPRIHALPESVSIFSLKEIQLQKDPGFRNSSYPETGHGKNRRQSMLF
Sequence of CDK17/Cyclin-Y (Homo sapiens) (Q8ND76 2-341 partner limits assumed): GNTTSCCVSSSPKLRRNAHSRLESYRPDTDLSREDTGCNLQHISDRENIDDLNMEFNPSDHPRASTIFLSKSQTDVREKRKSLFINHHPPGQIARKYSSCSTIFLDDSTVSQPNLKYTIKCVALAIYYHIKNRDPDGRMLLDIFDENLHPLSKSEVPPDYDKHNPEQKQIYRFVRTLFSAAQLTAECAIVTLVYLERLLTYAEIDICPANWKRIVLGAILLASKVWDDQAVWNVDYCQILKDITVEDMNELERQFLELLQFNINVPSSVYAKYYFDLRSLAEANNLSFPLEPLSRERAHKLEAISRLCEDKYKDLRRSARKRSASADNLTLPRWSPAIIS

[6] = molecular target: Cyclin-dependent kinase 2/cyclin E1 (Homo sapiens) (UniProt P24864+P24941); assay: Inhibition of CDK2/cyclinE(h) at 10.0 µM in the Eurofins Kinase panel; type: protein-complex assay
[7] = molecular target: Casein kinase II subunit alpha' (Homo sapiens) (UniProt P19784); assay: Inhibition of CK2alpha2(h) at 10.0 µM in the Eurofins Kinase panel
[8] = molecular target: Death-associated protein kinase 1 (Homo sapiens) (UniProt P53355); assay: Inhibition of DAPK1(h) at 10.0 µM in the Eurofins Kinase panel
Sequence of Death-associated protein kinase 1 (Homo sapiens) (P53355 whole entry, looked up): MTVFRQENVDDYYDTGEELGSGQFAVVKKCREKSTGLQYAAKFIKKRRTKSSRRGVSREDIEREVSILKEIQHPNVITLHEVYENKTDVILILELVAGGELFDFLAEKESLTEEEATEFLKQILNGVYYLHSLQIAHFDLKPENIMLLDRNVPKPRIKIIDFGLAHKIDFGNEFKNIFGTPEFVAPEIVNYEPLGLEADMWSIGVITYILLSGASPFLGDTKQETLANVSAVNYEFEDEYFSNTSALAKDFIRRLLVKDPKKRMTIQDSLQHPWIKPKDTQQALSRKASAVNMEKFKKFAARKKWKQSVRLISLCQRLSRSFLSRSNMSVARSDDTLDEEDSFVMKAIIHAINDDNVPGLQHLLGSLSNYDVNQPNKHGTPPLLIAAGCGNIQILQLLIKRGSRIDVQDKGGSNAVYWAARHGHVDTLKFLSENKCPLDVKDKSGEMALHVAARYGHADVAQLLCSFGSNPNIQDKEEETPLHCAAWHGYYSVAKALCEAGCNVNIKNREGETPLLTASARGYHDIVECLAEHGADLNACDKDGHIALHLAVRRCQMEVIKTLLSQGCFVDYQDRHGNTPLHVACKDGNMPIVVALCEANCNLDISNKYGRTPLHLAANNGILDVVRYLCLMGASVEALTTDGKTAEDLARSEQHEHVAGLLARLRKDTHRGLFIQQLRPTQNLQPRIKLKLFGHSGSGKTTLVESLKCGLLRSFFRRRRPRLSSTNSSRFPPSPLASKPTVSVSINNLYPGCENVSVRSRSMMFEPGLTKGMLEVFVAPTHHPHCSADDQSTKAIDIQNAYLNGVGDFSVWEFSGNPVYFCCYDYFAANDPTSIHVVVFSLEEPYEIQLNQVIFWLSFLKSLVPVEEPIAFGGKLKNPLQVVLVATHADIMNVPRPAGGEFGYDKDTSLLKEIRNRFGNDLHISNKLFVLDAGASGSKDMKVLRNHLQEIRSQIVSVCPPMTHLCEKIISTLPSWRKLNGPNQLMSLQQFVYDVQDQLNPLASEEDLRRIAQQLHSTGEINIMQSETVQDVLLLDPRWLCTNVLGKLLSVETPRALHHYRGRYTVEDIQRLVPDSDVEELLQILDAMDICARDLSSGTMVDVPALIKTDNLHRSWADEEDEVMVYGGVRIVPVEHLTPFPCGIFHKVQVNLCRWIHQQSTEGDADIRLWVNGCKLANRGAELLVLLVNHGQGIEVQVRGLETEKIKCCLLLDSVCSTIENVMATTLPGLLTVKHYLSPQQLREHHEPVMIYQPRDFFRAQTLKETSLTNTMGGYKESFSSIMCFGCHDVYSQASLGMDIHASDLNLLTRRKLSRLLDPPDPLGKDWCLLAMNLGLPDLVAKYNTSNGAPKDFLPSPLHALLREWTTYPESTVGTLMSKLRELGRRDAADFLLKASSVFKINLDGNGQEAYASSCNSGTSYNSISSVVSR

[9] = molecular target: Fibroblast growth factor receptor 1 (Homo sapiens) (UniProt P11362); assay: Inhibition of FGFR1(h) at 10.0 µM in the Eurofins Kinase panel
[10] = molecular target: eIF-2-alpha kinase GCN2 (Homo sapiens) (UniProt Q9P2K8); assay: Inhibition of GCN2(h) at 10.0 µM in the Eurofins Kinase panel
[11] = molecular target: G protein-coupled receptor kinase 3 (Homo sapiens) (UniProt P35626); assay: Inhibition of GRK3(h) at 10.0 µM in the Eurofins Kinase panel
[12] = molecular target: G protein-coupled receptor kinase 5 (Homo sapiens) (UniProt P34947); assay: Inhibition of GRK5(h) at 10.0 µM in the Eurofins Kinase panel
Sequence of G protein-coupled receptor kinase 5 (Homo sapiens) (P34947 whole entry, looked up): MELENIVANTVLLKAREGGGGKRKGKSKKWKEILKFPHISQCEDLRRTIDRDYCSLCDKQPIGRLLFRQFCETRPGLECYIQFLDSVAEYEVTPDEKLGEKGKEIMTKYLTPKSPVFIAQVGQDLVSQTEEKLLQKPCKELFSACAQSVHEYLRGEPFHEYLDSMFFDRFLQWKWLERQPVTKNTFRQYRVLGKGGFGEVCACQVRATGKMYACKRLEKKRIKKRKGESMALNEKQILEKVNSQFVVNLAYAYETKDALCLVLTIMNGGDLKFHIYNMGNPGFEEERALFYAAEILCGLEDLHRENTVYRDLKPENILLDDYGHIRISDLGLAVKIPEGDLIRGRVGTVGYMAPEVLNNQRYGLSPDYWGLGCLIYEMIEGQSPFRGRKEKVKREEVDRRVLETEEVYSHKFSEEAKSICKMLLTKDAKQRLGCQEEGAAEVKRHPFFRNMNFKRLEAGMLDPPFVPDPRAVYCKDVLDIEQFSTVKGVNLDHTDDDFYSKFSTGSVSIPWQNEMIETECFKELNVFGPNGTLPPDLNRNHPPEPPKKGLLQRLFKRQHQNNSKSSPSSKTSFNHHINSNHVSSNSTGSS

[13] = molecular target: Insulin-like growth factor 1 receptor (Homo sapiens) (UniProt P08069); assay: Inhibition of IGF-1R(h), activated at 10.0 µM in the Eurofins Kinase panel
[14] = molecular target: MAP kinase-interacting serine/threonine-protein kinase 2 (Homo sapiens) (UniProt Q9HBH9); assay: Inhibition of Mnk2(h) at 10.0 µM in the Eurofins Kinase panel
[15] = molecular target: Ribosomal protein S6 kinase alpha-5 (Homo sapiens) (UniProt O75582); assay: Inhibition of MSK1(h) at 10.0 µM in the Eurofins Kinase panel
[16] = molecular target: SRSF protein kinase 3 (Homo sapiens) (UniProt Q9UPE1); assay: Inhibition of MSSK1(h) at 10.0 µM in the Eurofins Kinase panel
Sequence of SRSF protein kinase 3 (Homo sapiens) (Q9UPE1 whole entry): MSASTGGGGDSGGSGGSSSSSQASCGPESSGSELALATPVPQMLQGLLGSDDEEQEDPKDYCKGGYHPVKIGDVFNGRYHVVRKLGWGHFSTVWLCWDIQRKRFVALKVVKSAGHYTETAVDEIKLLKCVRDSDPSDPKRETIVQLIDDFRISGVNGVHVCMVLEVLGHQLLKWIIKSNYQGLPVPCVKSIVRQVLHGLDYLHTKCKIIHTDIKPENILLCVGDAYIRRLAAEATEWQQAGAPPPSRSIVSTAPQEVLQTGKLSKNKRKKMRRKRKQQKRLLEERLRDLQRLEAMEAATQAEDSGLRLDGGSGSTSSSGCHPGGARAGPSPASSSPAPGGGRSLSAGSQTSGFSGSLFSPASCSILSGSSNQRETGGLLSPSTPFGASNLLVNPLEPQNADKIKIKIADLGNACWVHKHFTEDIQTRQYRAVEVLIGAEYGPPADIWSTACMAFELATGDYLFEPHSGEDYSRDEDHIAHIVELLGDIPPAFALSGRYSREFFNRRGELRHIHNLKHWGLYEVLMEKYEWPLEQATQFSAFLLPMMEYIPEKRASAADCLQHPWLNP

[17] = molecular target: Serine/threonine-protein kinase Nek11 (Homo sapiens) (UniProt Q8NG66); assay: Inhibition of NEK11(h) at 10.0 µM in the Eurofins Kinase panel
[18] = molecular target: Serine/threonine-protein kinase PAK 3 (Homo sapiens) (UniProt O75914); assay: Inhibition of PAK3(h) at 10.0 µM in the Eurofins Kinase panel
[19] = molecular target: Phosphorylase b kinase gamma catalytic chain, skeletal muscle/heart isoform (Homo sapiens) (UniProt Q16816); assay: Inhibition of PhKgamma1(h) at 10.0 µM in the Eurofins Kinase panel
[20] = molecular target: Protein kinase C epsilon type (Homo sapiens) (UniProt Q02156); assay: Inhibition of PKCepsilon(h) at 10.0 µM in the Eurofins Kinase panel
[21] = molecular target: Protein kinase C theta type (Homo sapiens) (UniProt Q04759); assay: Inhibition of PKCtheta(h) at 10.0 µM in the Eurofins Kinase panel
[22] = molecular target: Serine/threonine-protein kinase PLK1 (Homo sapiens) (UniProt P53350); assay: Inhibition of Plk1(h) at 10.0 µM in the Eurofins Kinase panel
[23] = molecular target: Serine/threonine-protein kinase N2 (Homo sapiens) (UniProt Q16513); assay: Inhibition of PRK2(h) at 10.0 µM in the Eurofins Kinase panel
[24] = molecular target: Serine/threonine-protein kinase SBK1 (Homo sapiens) (UniProt Q52WX2); assay: Inhibition of SBK1(h) at 10.0 µM in the Eurofins Kinase panel
[25] = molecular target: Tyrosine-protein kinase Tec (Homo sapiens) (UniProt P42680); assay: Inhibition of Tec(h) activated at 10.0 µM in the Eurofins Kinase panel
[26] = molecular target: Tribbles homolog 2 (Homo sapiens) (UniProt Q92519); assay: Inhibition of TRB2(h) at 10.0 µM in the Eurofins Kinase panel
[27] = molecular target: Serine/threonine-protein kinase ULK2 (Homo sapiens) (UniProt Q8IYT8); assay: Inhibition of ULK2(h) at 10.0 µM in the Eurofins Kinase panel
[28] = molecular target: Phosphatidylinositol 4-phosphate 3-kinase C2 domain-containing subunit alpha (Homo sapiens) (UniProt O00443); assay: Inhibition of PI3KC2a(h) at 10.0 µM in the Eurofins Kinase panel
[29] = molecular target: Phosphatidylinositol 4-phosphate 5-kinase type-1 gamma (Homo sapiens) (UniProt O60331); assay: Inhibition of PIP5K1g(h) at 10.0 µM in the Eurofins Kinase panel
[30] = molecular target: D(1B) dopamine receptor (Homo sapiens) (UniProt P21918)
Sequence of D(1B) dopamine receptor (Homo sapiens) (P21918 whole entry): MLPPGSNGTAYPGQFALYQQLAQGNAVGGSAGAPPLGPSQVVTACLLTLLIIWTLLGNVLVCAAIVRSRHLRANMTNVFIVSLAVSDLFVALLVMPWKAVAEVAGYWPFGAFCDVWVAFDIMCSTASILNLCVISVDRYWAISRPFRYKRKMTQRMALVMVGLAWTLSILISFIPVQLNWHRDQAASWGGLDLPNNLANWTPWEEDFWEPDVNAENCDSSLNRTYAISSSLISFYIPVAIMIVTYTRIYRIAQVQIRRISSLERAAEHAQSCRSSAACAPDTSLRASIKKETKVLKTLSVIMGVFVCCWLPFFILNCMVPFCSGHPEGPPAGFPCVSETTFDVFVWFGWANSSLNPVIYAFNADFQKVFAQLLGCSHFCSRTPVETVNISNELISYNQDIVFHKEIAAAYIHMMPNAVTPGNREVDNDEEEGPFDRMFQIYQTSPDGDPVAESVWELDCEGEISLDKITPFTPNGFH

[31] = molecular target: Histamine H3 receptor (Homo sapiens) (UniProt Q9Y5N1)
Sequence of Histamine H3 receptor (Homo sapiens) (Q9Y5N1 whole entry): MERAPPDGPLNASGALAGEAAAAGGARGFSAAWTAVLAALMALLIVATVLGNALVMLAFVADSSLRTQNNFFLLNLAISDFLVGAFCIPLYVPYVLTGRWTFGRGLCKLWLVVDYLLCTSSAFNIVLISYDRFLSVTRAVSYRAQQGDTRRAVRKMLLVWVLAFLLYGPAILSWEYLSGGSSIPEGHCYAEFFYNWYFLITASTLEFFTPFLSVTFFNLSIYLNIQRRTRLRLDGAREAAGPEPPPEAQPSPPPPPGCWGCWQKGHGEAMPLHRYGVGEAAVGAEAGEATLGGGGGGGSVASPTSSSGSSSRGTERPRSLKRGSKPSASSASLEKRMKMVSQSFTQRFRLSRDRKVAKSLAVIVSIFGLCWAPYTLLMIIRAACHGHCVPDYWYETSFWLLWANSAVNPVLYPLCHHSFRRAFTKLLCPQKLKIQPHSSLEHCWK

[32] = molecular target: Endothelin receptor type B (Homo sapiens) (UniProt P24530)
[33] = molecular target: T1, Alpha-2C adrenergic receptor (Homo sapiens) (UniProt P18825)
T1 sequence (whole entry): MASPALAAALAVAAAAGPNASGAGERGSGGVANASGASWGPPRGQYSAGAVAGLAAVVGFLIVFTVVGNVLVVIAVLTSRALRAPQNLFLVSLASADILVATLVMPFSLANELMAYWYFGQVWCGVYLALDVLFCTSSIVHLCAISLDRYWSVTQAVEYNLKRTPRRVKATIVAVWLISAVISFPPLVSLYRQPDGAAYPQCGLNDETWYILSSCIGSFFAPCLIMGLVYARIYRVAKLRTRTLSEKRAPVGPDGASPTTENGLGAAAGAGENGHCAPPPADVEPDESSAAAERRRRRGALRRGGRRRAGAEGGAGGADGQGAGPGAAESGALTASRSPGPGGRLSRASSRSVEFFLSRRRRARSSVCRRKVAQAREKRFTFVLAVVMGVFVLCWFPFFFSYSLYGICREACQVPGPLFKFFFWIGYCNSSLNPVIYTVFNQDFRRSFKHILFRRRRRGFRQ

SMILES	inhibition [1] [%]	inhibition [2] [%]	inhibition [3] [%]	inhibition [4] [%]	inhibition [5] [%]	inhibition [6] [%]	inhibition [7] [%]	inhibition [8] [%]	inhibition [9] [%]	inhibition [10] [%]	inhibition [11] [%]	inhibition [12] [%]	inhibition [13] [%]	inhibition [14] [%]	inhibition [15] [%]	inhibition [16] [%]	inhibition [17] [%]	inhibition [18] [%]	inhibition [19] [%]	inhibition [20] [%]	further results
O=c1n(Cc2cncn2-c2cccc(Cl)c2)nc(-c2ccc(Cl)cc2)n1C[C@H](O)C(F)(F)F	3.01	-0.99	0.32	8.3	3.78	3.43	6.42	-5.66	-0.06	12.4	-3.13	-0.58	-4.33	-0.78	-0.53	9.31	15.8	7.29	7.19	11	inhibition [21]: 14.5%; inhibition [22]: -0.49%; inhibition [23]: 27.4%; inhibition [24]: 0.97%; inhibition [25]: 2.85%; inhibition [26]: 3.48%; inhibition [27]: 1.8%; inhibition [28]: 27.5%; inhibition [29]: -0.37%; inhibition [30]: 19.6%; inhibition [31]: 5.05%; inhibition [32]: 1%; inhibition [33]: -3%
C[C@H](O)c1nc(Cn2nc(-c3ccc(Cl)cc3)n(C[C@H](O)C(F)(F)F)c2=O)nn1-c1cccc(Cl)c1 [PECAVAPTAN]	4.03	-1.01	-3.01	10.3	5.47	-0.04	-3.46	-1.83	1.76	13.1	2.8	2.6	-6.92	3.54	-5.91	-9.95	16.2	1.73	-1.63	19.1	inhibition [21]: 3.44%; inhibition [22]: -2.91%; inhibition [23]: 7.5%; inhibition [24]: -2.61%; inhibition [25]: -7.44%; inhibition [26]: -2.41%; inhibition [27]: 5.09%; inhibition [28]: 11.6%; inhibition [29]: -2.06%; inhibition [30]: 1.94%; inhibition [31]: 11.9%; inhibition [32]: 5%; inhibition [33]: 11%
